Tests used:
Experiment in all cases: Bliss excess, mean over the matrix (fraction); higher = more synergy
[1] = test system: EB2 (Burkitt's Lymphoma)
Summary of the method: (§1)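 Cell lines grown in DMEM/F12 or RPMI with 10% FBS were plated in 1536-well plates and held 24 hours at 37°C, 5% CO2 before 72 hours of exposure to two-drug dose matrices, with DMSO typically at 0.2%. CellTiter-Glo 2.0 luminescence gave viability, which was converted to inhibition. Vehicle wells were set to 0 and blank wells to 1. Combination Emax is the second-highest inhibition in the matrix, and Bliss excess is the observed combination effect minus the expected EA + EB − EA·EB, where EA and EB are the single-agent effects.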

[2] = test system: DU-4475 (Breast Carcinoma)
Summary of the method: as §1

[3] = test system: WM1552C (Melanoma)
Summary of the method: as §1

[4] = test system: EW-7 (Ewing's Sarcoma)
Summary of the method: as §1

[5] = test system: PEO1 (Ovarian Carcinoma)
Summary of the method: as §1

[6] = test system: HCC1428 (Breast Carcinoma)
Summary of the method: as §1

[7] = test system: ESO26 (Esophageal Adenocarcinoma)
Summary of the method: as §1

[8] = test system: MHH-ES-1 (Ewing's Sarcoma)
Summary of the method: as §1

[9] = test system: AU565 (Breast Carcinoma)
Summary of the method: as §1

[10] = test system: A101D (Melanoma)
Summary of the method: as §1

[11] = test system: CESS (Acute Myeloid Leukemia)
Summary of the method: as §1

[12] = test system: OACp4C (Esophageal Adenocarcinoma)
Summary of the method: as §1

[13] = test system: MDA-MB-436 (Breast Carcinoma)
Summary of the method: as §1

[14] = test system: A2780 (Ovarian Carcinoma)
Summary of the method: as §1

[15] = test system: CGTH-W-1 (Thyroid Gland Carcinoma)
Summary of the method: as §1

[16] = test system: DMS-53 (Small Cell Lung Carcinoma)
Summary of the method: as §1

[17] = test system: NCI-H1651 (Lung Adenocarcinoma)
Summary of the method: as §1

[18] = test system: CA46 (Burkitt's Lymphoma)
Summary of the method: as §1

[19] = test system: G-402 (Other Solid Carcinomas)
Summary of the method: as §1

[20] = test system: CAL-27 (Oral Cavity Carcinoma)
Summary of the method: as §1

Row | SMILES | Bliss excess [1] | Bliss excess [2] | Bliss excess [3] | Bliss excess [4] | Bliss excess [5] | Bliss excess [6] | Bliss excess [7] | Bliss excess [8] | Bliss excess [9] | Bliss excess [10] | Bliss excess [11] | Bliss excess [12] | Bliss excess [13] | Bliss excess [14] | Bliss excess [15] | Bliss excess [16] | Bliss excess [17] | Bliss excess [18] | Bliss excess [19] | Bliss excess [20]
1 | CC(=O)c1c(C)c2cnc(Nc3ccc(N4CCNCC4)cn3)nc2n(C2CCCC2)c1=O [Palbociclib] + Cc1c2c(nn1C)CSCc1cc(n(C)n1)CSc1cc(c3ccccc3c1)OCCCc1c(C(=O)O)n(C)c3c-2c(Cl)ccc13 [AZD5991] (first compound max 10 µM, 7x7, partner max 1 µM) | -0.0352 | 0.0238 | -0.0565 | -0.0005 | -0.0483 | -0.033 | -0.0467 | -0.008 | -0.0211 | -0.0091 | -0.0341 | -0.064 | -0.0243 | -0.0344 | -0.0037 | 0.044 | -0.0239 | -0.0242 | 0.0106 | -0.0869
2 | CC1(C)CCC(CN2CCN(c3ccc(C(=O)NS(=O)(=O)c4ccc(NCC5CCOCC5)c([N+](=O)[O-])c4)c(Oc4cnc5[nH]ccc5c4)c3)CC2)=C(c2ccc(Cl)cc2)C1 [Venetoclax] + Cn1cnc2c(F)c(Nc3ccc(Br)cc3Cl)c(C(=O)NOCCO)cc21 [Selumetinib] (first compound max 1 µM, 7x7, partner max 3 µM) | 0.0012 | -0.0057 | -0.0062 | -0.0058 | -0.0452 | -0.026 | -0.0133 | -0.0424 | 0.0147 | -0.0254 | -0.0674 | 0.0303 | -0.0303 | 0.0027 | -0.0482 | 0.0543 | -0.0367 | -0.068 | -0.0298 | -0.0087
3 | CC1(C)CCC(CN2CCN(c3ccc(C(=O)NS(=O)(=O)c4ccc(NCC5CCOCC5)c([N+](=O)[O-])c4)c(Oc4cnc5[nH]ccc5c4)c3)CC2)=C(c2ccc(Cl)cc2)C1 [Venetoclax] + CN(C)CCCOc1ccc(-c2ccc3ncc4c(c3c2)n(C2CCOCC2)c(=O)n4C)cn1 [AZD0156] (first compound max 1 µM, 7x7, partner max 1 µM) | 0.0106 | -0.0158 | -0.0674 | -0.007 | -0.018 | 0.0145 | -0.0063 | 0.0177 | 0.0206 | 0.0088 | -0.0638 | -0.0468 | -0.0319 | -0.02 | -0.0286 | 0.0619 | -0.0174 | -0.026 | -0.0774 | 0.0065
4 | COc1nnc2ccc(N3CCC(c4ccc(OCCN5CCN(C)C(=O)[C@H]5C)cc4)CC3)nn12 [AZD5153] + CCN(CCO)CCCOc1ccc2c(Nc3cc(CC(=O)Nc4cccc(F)c4)[nH]n3)ncnc2c1 [AZD2811] (first compound max 1 µM, 7x7, partner max 1 µM) | -0.102 | 0.0934 | -0.0615 | 0.0274 | -0.0137 | -0.0173 | 0.0002 | -0.0345 | -0.0016 | -0.104 | 0.0259 | -0.062 | -0.0214 | -0.0295 | 0.0228 | 0.0175 | 0.004 | -0.0088 | -0.0728 | -0.127
5 | NC1(C(=O)N[C@@H](CCO)c2ccc(Cl)cc2)CCN(c2ncnc3[nH]ccc23)CC1 [Capivasertib] + CCN(CCO)CCCOc1ccc2c(Nc3cc(CC(=O)Nc4cccc(F)c4)[nH]n3)ncnc2c1 [AZD2811] (first compound max 10 µM, 7x7, partner max 1 µM) | -0.0299 | 0.0487 | -0.0378 | 0.0251 | -0.0134 | 0.0066 | -0.0308 | -0.0132 | -0.0229 | -0.0282 | 0.0217 | -0.0332 | -0.0424 | 0.05 | 0.0234 | 0.0225 | -0.0381 | -0.0519 | -0.0502 | -0.0783
6 | COc1cccc2c1C(=O)c1c(O)c3c(c(O)c1C2=O)C[C@@](O)(C(=O)CO)C[C@@H]3O[C@H]1C[C@H](N)[C@H](O)[C@H](C)O1 [Doxorubicin] + Cc1cc2ncnn2cc1Nc1ncc2c(n1)n(C1CCOCC1)c(=O)n2C [AZD7648] (first compound max 1 µM, 7x7, partner max 10 µM) | 0.0972 | 0.143 | 0.0398 | 0.0058 | -0.0214 | -0.0499 | 0.032 | 0.0697 | 0.0753 | 0.0232 | 0.11 | 0.0636 | 0.0122 | 0.0194 | 0.0333 | 0.0197 | 0.024 | 0.0813 | 0.0446 | 0.0853
7 | Cc1c2c(nn1C)CSCc1cc(n(C)n1)CSc1cc(c3ccccc3c1)OCCCc1c(C(=O)O)n(C)c3c-2c(Cl)ccc13 [AZD5991] + C=CCn1c(=O)c2cnc(Nc3ccc(N4CCN(C)CC4)cc3)nc2n1-c1cccc(C(C)(C)O)n1 [AZD1775] (first compound max 1 µM, partner max 1 µM) | -0.0969 | -0.0582 | -0.0651 | 0.0015 | 0.0146 | -0.0407 | 0.0072 | -0.0496 | 0.0127 | 0.0106 | -0.0098 | 0.0186 | 0.0087 | -0.0313 | 0.005 | 0.0326 | -0.11 | -0.0627 | 0.051 | -0.0508
8 | Cn1cnc2c(F)c(Nc3ccc(Br)cc3Cl)c(C(=O)NOCCO)cc21 [Selumetinib] + CC(C)n1c(=O)n(C)c2cnc3cc(F)c(-c4ccc(OCCCN5CCCCC5)nc4)cc3c21 [AZD1390] (first compound max 10 µM, 7x7, partner max 0.3 µM) | -0.0532 | -0.0112 | -0.0102 | -0.0117 | -0.0118 | -0.0333 | -0.0471 | -0.0328 | 0.005 | -0.0246 | -0.0355 | 0.0048 | -0.0394 | -0.0369 | -0.0388 | -0.0267 | -0.0305 | -0.006 | -0.0095 | -0.0489
9 | CN(C)CCCOc1ccc(-c2ccc3ncc4c(c3c2)n(C2CCOCC2)c(=O)n4C)cn1 [AZD0156] + C=CCn1c(=O)c2cnc(Nc3ccc(N4CCN(C)CC4)cc3)nc2n1-c1cccc(C(C)(C)O)n1 [AZD1775] (first compound max 1 µM, partner max 1 µM) | -0.0322 | -0.0036 | 0.0116 | 0.039 | -0.0442 | -0.115 | -0.0322 | -0.0402 | -0.016 | -0.0616 | -0.0059 | -0.0245 | -0.0623 | -0.0284 | -0.033 | -0.028 | -0.0046 | -0.0283 | -0.0501 | -0.0539
10 | CN(C)CCCOc1ccc(-c2ccc3ncc4c(c3c2)n(C2CCOCC2)c(=O)n4C)cn1 [AZD0156] + CCN(CCO)CCCOc1ccc2c(Nc3cc(CC(=O)Nc4cccc(F)c4)[nH]n3)ncnc2c1 [AZD2811] (first compound max 1 µM, 7x7, partner max 1 µM) | -0.0245 | -0.0135 | -0.0135 | 0.0718 | -0.0421 | -0.06 | -0.037 | 0.0376 | 0.0021 | -0.0198 | 0.0178 | 0.0091 | -0.0539 | 0.0336 | -0.0076 | -0.0251 | -0.0167 | 0.0059 | -0.0111 | -0.0054
11 | CC(=O)c1c(C)c2cnc(Nc3ccc(N4CCNCC4)cn3)nc2n(C2CCCC2)c1=O [Palbociclib] + Cn1cnc2c(F)c(Nc3ccc(Br)cc3Cl)c(C(=O)NOCCO)cc21 [Selumetinib] (first compound max 10 µM, 7x7, partner max 10 µM) | -0.018 | -0.0446 | -0.0078 | 0.0709 | -0.0055 | -0.0235 | 0.0104 | -0.0061 | 0.0052 | -0.0907 | 0.0202 | -0.0359 | 0.0157 | 0.0327 | -0.036 | -0.0207 | -0.0391 | -0.0504 | 0.0399 | -0.0132
12 | Cn1cnc2c(F)c(Nc3ccc(Br)cc3Cl)c(C(=O)NOCCO)cc21 [Selumetinib] + C=CCn1c(=O)c2cnc(Nc3ccc(N4CCN(C)CC4)cc3)nc2n1-c1cccc(C(C)(C)O)n1 [AZD1775] (first compound max 10 µM, partner max 1 µM) | -0.071 | -0.0196 | -0.0674 | -0.0115 | -0.0059 | -0.0409 | -0.0853 | -0.0733 | -0.0507 | -0.087 | -0.0037 | -0.0357 | -0.0002 | -0.0352 | -0.0427 | -0.0174 | -0.0692 | -0.0625 | -0.073 | 0.0384
13 | CC(=O)c1c(C)c2cnc(Nc3ccc(N4CCNCC4)cn3)nc2n(C2CCCC2)c1=O [Palbociclib] + CC1(C)CCC(CN2CCN(c3ccc(C(=O)NS(=O)(=O)c4ccc(NCC5CCOCC5)c([N+](=O)[O-])c4)c(Oc4cnc5[nH]ccc5c4)c3)CC2)=C(c2ccc(Cl)cc2)C1 [Venetoclax] (first compound max 10 µM, 7x7, partner max 1 µM) | -0.044 | -0.0162 | -0.0334 | 0.0071 | -0.0062 | -0.0378 | -0.0364 | 0.0193 | 0.0161 | -0.0025 | -0.0272 | -0.0167 | -0.0345 | 0.0005 | -0.0219 | 0.0325 | -0.038 | -0.0004 | 0.0369 | -0.0483
14 | C=CCn1c(=O)c2cnc(Nc3ccc(N4CCN(C)CC4)cc3)nc2n1-c1cccc(C(C)(C)O)n1 [AZD1775] + O=C(c1cc(Cc2n[nH]c(=O)c3ccccc23)ccc1F)N1CCN(C(=O)C2CC2)CC1 [Olaparib] (first compound max 1 µM, partner max 10 µM) | -0.019 | 0.0395 | -0.0941 | -0.0704 | -0.013 | -0.0279 | -0.0518 | -0.0196 | -0.0195 | -0.0542 | -0.0054 | -0.055 | -0.0077 | -0.0256 | -0.0222 | -0.0715 | -0.0869 | -0.0612 | -0.0761 | -0.0431

Reference: the supplement of paper PMC11061612
